{"source": "patent US9791456B2", "about": "“Method for measuring ATR inhibition mediated increases in DNA damage” (Vertex Pharmaceuticals Incorporated, priority 2012, dated 2017)", "type_in_all_cases": "cell-based", "key": {"[1]": {"target": "T1, ATR (Mus musculus, UniProt Q9JKK8)", "T1 construct": "Whole human or mouse blood was collected in heparinised tubes; endogenous in cells; host or cells: lymphocytes in whole mouse blood ex vivo", "test": "ATR inhibition in whole mouse blood ex vivo: 4-nitroquinoline stimulated H2AX phosphorylation in lymphocytes, flow cytometry", "method": "The samples were mixed by agitation, incubated for 10 min at 37° C. and stimulated with 62 uM (human) or 124 uM (mouse) 4-nitroquinoline for 1 h at 37° C. The samples were then fixed and red blood cells were lysed using Lyse/Fix Buffer (BD) for 5-10 min and white blood cells were collected by centrifugation according to the manufacturer's instructions. The samples were then transferred into 96 well round bottom plates and permeabilised using Triton X-100 according to method i). H2AX phosphorylation was then analysed by flow cytometry according to method i) with selection of lymphocytes using either standard scatterplot gating or CD3 staining. For specific analysis of H2AX phosphorylation in CD3 positive lymphocytes, cells were stained with 1:2.5 diluted PE-conjugated anti-human CD3 (BD) (human) and 1:50 diluted APC-conjugated anti-mouse CD3 (BD) (mouse) in place of propidium iodide and analyses of P-H2AX were performed on the CD3-positive population."}, "[2]": {"target": "T2, ATR (Homo sapiens, UniProt Q13535)", "T2 construct": "PBMCs were purified from fresh whole human blood; endogenous in cells; host or cells: human PBMCs / lymphocytes from fresh whole blood of healthy volunteers", "T2 sequence (Q13535 whole entry)": "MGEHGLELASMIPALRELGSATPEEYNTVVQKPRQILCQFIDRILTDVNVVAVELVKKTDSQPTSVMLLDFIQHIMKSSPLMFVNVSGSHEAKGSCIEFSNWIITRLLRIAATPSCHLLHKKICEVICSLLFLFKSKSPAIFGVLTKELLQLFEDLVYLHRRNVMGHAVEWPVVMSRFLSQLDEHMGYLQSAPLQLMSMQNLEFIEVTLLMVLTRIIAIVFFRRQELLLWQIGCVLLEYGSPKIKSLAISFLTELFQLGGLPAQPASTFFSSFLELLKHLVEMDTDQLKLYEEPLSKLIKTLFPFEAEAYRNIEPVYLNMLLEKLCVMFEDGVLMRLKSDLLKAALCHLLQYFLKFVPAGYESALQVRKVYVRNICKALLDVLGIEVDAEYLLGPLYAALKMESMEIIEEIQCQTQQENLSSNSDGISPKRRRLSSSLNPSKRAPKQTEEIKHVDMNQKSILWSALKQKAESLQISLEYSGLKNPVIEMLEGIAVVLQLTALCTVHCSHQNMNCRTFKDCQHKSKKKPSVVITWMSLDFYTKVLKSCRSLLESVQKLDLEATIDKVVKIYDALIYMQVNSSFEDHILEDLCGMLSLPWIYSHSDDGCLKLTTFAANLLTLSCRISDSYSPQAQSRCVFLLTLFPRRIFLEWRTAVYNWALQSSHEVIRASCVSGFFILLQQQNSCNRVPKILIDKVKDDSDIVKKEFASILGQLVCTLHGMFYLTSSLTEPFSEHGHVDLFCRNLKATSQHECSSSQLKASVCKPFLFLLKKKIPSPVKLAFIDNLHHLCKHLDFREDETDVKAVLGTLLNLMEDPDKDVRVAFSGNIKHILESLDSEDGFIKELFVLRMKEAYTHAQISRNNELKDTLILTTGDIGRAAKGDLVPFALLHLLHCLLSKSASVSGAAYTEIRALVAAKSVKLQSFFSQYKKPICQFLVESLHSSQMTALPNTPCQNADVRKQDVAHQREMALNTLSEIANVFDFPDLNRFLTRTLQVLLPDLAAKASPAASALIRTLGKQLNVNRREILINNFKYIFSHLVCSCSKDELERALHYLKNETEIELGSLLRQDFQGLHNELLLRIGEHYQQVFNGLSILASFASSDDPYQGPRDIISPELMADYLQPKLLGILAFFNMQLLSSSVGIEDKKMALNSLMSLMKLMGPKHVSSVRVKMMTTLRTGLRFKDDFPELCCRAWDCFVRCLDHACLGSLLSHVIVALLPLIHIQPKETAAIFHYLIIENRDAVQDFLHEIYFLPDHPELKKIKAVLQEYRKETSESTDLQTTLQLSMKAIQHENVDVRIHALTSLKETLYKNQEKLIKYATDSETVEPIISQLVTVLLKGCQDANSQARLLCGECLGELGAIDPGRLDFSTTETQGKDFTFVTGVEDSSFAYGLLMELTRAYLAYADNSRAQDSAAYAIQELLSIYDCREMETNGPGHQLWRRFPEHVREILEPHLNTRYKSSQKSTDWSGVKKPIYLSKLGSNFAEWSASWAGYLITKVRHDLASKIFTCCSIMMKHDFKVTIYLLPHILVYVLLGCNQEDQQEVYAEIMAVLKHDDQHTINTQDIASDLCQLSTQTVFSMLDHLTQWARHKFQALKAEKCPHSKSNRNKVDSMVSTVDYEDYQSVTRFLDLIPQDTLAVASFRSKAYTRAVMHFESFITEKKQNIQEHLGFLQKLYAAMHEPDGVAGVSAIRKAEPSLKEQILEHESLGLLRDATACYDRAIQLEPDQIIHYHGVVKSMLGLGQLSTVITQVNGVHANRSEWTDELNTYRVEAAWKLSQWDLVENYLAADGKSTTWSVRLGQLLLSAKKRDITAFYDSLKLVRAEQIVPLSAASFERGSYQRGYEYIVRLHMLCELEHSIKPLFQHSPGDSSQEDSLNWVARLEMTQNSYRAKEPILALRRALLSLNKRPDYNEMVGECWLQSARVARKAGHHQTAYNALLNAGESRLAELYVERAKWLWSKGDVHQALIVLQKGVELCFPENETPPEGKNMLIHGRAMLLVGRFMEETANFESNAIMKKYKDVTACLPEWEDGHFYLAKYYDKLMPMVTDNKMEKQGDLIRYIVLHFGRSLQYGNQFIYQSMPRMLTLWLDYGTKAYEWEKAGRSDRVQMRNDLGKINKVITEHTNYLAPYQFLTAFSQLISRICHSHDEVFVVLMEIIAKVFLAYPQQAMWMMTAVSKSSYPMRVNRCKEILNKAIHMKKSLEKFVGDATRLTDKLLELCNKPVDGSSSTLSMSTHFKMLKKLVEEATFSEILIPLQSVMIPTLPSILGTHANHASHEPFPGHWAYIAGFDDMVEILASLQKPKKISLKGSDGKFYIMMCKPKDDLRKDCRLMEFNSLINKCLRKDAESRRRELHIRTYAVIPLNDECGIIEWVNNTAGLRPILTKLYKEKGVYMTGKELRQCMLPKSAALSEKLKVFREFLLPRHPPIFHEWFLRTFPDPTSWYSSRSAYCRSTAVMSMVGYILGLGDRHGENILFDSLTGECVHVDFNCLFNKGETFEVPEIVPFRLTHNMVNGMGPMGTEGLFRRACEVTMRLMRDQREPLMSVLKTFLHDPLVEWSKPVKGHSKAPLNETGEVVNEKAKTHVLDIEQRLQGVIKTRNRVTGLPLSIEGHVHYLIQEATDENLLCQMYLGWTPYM", "T2 sequence (Q8WXE1 whole entry partner)": "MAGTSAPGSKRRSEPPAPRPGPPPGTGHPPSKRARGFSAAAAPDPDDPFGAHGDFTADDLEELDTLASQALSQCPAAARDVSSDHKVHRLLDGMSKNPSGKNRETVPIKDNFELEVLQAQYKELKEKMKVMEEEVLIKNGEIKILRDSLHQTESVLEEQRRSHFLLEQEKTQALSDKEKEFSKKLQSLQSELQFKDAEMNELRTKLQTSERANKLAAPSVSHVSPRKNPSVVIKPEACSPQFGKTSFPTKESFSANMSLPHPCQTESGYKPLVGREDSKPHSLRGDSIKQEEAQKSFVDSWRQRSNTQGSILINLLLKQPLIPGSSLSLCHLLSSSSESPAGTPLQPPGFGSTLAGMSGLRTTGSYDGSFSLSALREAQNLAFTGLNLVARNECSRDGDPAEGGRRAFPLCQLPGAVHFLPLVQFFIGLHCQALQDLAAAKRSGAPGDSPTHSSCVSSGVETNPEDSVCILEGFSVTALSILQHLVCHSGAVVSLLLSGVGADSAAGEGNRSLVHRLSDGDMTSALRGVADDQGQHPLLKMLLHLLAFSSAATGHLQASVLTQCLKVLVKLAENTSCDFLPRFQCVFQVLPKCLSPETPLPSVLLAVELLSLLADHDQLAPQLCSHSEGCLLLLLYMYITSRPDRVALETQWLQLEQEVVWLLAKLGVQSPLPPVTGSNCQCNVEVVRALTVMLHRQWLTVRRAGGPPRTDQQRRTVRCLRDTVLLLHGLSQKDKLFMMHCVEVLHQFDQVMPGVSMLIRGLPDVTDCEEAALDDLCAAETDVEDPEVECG", "test": "ATR inhibition in PBMCs after treatment of human whole blood with 4-nitroquinoline, immunofluorescence", "conditions": "240 μM 4-nitroquinoline 1 and 2 hr, 1 or 10 μM compound", "method": "Blood from healthy volunteers was collected by venepuncture into EDTA-coated blood collection tubes. […] Following 1 or 2 hours incubation (as indicated) at 37° C. the blood mixture was transferred into 15 ml falcon tubes containing 2 mls FICOLL-PAQUE PLUS™ and the PBMCs separated using centrifugation through a FICOLL-PAQUE PLUS™ separation gradient. PBMCs were collected and washed twice using 10 mls PBS and resuspended in 1 ml PBS. PBMCs were counted using a haemocytometer and 1×10^5 PBMCs were centrifuged onto microscope slides using a CYTOSPIN 2™ centrifuge (Shandon) for 5 minutes at 450 rpm. Cells were fixed using 4% (w/v) paraformaldehyde for 20 minutes and permeablised using 0.5% (v/v) Triton-X-100 for 30 minutes. […] These were detected using the appropriate secondary antibodies diluted in 1% (w/v) BSA in PBS: anti-rabbit AlexaFluor 546 (Invitrogen, 1:1000) and anti-mouse AlexaFluor 546 (Invitrogen, 1:1000). […] Mean nuclear fluorescence for at least 50 nuclei was measured using Image) software (National Institutes of Health, USA) and the data analysed using GraphPad Prism software version 6.0."}, "[3]": {"system": "pChk1^Ser345 and γH2AX in PBMCs", "test": "Evaluation of optimal 4-nitroquinoline concentration in PBMCs from treated human whole blood, immunofluorescence", "conditions": "240 μM 4-nitroquinoline, 2 hours", "experimental": "Blood from healthy volunteers was collected by venepuncture into EDTA-coated blood collection tubes. 2 mls of blood per treatment was transferred into 1 well of a 6-well plates already containing 2 mls PBS containing 2% (v/v) FBS and DMSO or 4-nitroquinoline (60, 120, 240, 480 μM final concentration). Following 2 hours incubation at 37° C. the blood mixture was transferred into 15 ml falcon tubes containing 2 mls FICOLL-PAQUE PLUS™ and the PBMCs separated using centrifugation through a FICOLL-PAQUE PLUS™ separation gradient. PBMCs were collected and washed twice using 10 mls PBS and resuspended in 1 ml PBS. PBMCs were counted using a haemocytometer and 1×10^5 PBMCs were centrifuged onto microscope slides using a CYTOSPIN 2™ centrifuge (Shandon) for 5 minutes at 450 rpm. Cells were fixed using 4% (w/v) paraformaldehyde for 20 minutes and permeablised using 0.5% (v/v) Triton-X-100 for 30 minutes. […] These were detected using the appropriate secondary antibodies diluted in 1% (w/v) BSA in PBS: anti-rabbit AlexaFluor 546 (Invitrogen, 1:1000) and anti-mouse AlexaFluor 546 (Invitrogen, 1:1000). […] Mean nuclear fluorescence for at least 50 nuclei was measured using Image) software (National Institutes of Health, USA) and the data analysed using GraphPad Prism software version 6.0."}, "[4]": {"system": "ATR-dependent phosphorylation events", "test": "4-nitroquinoline induction of ATR-dependent phosphorylation events in cell lines and isolated PBMCs", "experimental": "PBMCs were purified from fresh whole human blood using FICOLL-PAQUE™ density gradient centrifugation. Cells were counted and seeded at 5×10(5) per well in a round bottom 96 well plate in RPMI medium supplemented with 10% foetal calf serum (FCS) and penicillin/streptomycin/glutamine (PSQ). […] Washed cells were then fixed with 4% paraformaldehyde for 10 min, permeabilised with 0.5% Triton X-100 for 10 min and analysed for Histone H2AX S139 phosphorylation by flow cytometry on the using 1:200 diluted anti-γH2AX primary antibody clone JBW301 (Millipore), 1:500 goat anti-mouse Alexa Fluor488 (Invitrogen) and propidium iodide DNA staining.\nBlood from healthy volunteers was collected by venepuncture into EDTA-coated blood collection tubes. […] PBMCs were collected using centrifugation, washed in 1 ml PBS then resuspended in 1 ml PBS before being counted using a haemocytometer. […] These were detected using the appropriate secondary antibodies diluted in 1% (w/v) BSA in PBS for 1 hour at room temperature protected from the light: anti-rabbit AlexaFluor 488 (Invitrogen, 1:1000) and anti-mouse AlexaFluor 546 (Invitrogen, 1:1000). […] Mean nuclear fluorescence for at least 50 nuclei was measured using ImageJ software (National Institutes of Health, USA) and the data analysed using GraphPad Prism software version 6.0. […]"}, "[5]": {"system": "pChk1^Ser345 and γH2AX in MCF7 cells", "test": "Evaluation of optimal 4-nitroquinoline concentration in MCF7 cells, immunofluorescence", "conditions": "0.1-10 μM 4-nitroquinoline, 2 hours", "experimental": "Coverslips were sterilised in methanol and placed in the bottom of a 6-well culture dish. 2×10^5 MCF7 cells were seeded into each well of a 6-well culture dish in culture medium (RPMI-1640 with 10% FBS and 1% penicillin and streptomycin) and allowed to adhere for 24 hours. Medium was replaced by fresh medium containing 4-nitroquinoline (0.1-10 μM) and incubated at 37° C. for 2 hours. Cells were washed in PBS, fixed using 4% (w/v) paraformaldehyde for 20 minutes at room temperature and permeablised using 0.5% (v/v) Triton-X-100 for 30 minutes at room temperature. Permeablised cells were blocked using 10% (v/v) goat serum and 5% (w/v) BSA in PBS for 1 hour, the coverslips removed and subjected to immunofluorescent analysis using primary antibodies diluted in 1% (w/v) BSA in PBS overnight at 4° C.: rabbit anti-pChk1^Ser345 (133D3, Cell Signaling Technology, 1:300) and mouse anti-phospho-Histone H2AX^Ser139 (JBW301, Millipore, 1:1000). These were detected using the appropriate secondary antibodies diluted in 1% (w/v) BSA in PBS for 1 hour at room temperature protected from light: anti-rabbit AlexaFluor 546 (Invitrogen, 1:1000) and anti-mouse AlexaFluor 546 (Invitrogen, 1:1000). […] Mean nuclear fluorescence for at least 50 nuclei was measured using Image) software (National Institutes of Health, USA) and the data analysed using GraphPad Prism software version 6.0."}, "[6]": {"target": "T2, ATR", "test": "ATR inhibition in purified PBMCs from human whole blood after DNA damaging agents, immunofluorescence", "conditions": "UV or 4-nitroquinoline, 10 μM VE-821", "method": "Blood from healthy volunteers was collected by venepuncture into EDTA-coated blood collection tubes. 2×10 ml aliquots of blood was diluted 1:1 in PBS and transferred into 50 ml falcon tubes containing 10 mls FICOLL-PAQUE PLUS™ (GE Healthcare). PBMCs were separated using centrifugation through a FICOLL-PAQUE PLUS™ separation gradient. PBMCs from each tube were collected separately and washed twice with 20 mls PBS before being pooled and resuspended in 20 mls culture medium (RPMI-1640 with 10% FBS). 2 mls of PBMC suspension per treatment were transferred into one well of a 6-well culture dish. […] PBMCs were collected using centrifugation, washed in 1 ml PBS then resuspended in 1 ml PBS before being counted using a haemocytometer. 1×10^5 PBMCs were centrifuged onto microscope slides using a CYTOSPIN 2™ centrifuge (Shandon) for 5 minutes at 450 rpm. […] These were detected using the appropriate secondary antibodies diluted in 1% (w/v) BSA in PBS for 1 hour at room temperature protected from the light: anti-rabbit AlexaFluor 488 (Invitrogen, 1:1000) and anti-mouse AlexaFluor 546 (Invitrogen, 1:1000). […] Mean nuclear fluorescence for at least 50 nuclei was measured using ImageJ software (National Institutes of Health, USA) and the data analysed using GraphPad Prism software version 6.0."}, "[7]": {"target": "T2, ATR", "test": "ATR inhibition in PBMCs after treatment of human whole blood with UV, immunofluorescence", "conditions": "50 J/m^2 UV, 10 μM VE-821", "method": "Blood from healthy volunteers was collected by venepuncture into EDTA-coated blood collection tubes. […] Following 1 hour incubation at 37° C. and 5% CO2, blood was exposed to 50 J/m^2 UV light. Following 1 hour further incubation the blood mixture was transferred into 15 ml falcon tubes containing 2 mls FICOLL-PAQUE PLUS™ and the PBMCs separated using centrifugation through a FICOLL-PAQUE PLUS™ separation gradient. PBMCs were collected and washed twice using 10 mls PBS and resuspended in 1 ml PBS. PBMCs were counted using a haemocytometer and 1×10^5 PBMCs were centrifuged onto microscope slides using a CYTOSPIN 2™ centrifuge (Shandon) for 5 minutes at 450 rpm. Cells were fixed using 4% (w/v) paraformaldehyde for 20 minutes and permeablised using 0.5% (v/v) Triton-X-100 for 30 minutes. […] These were detected using the appropriate secondary antibodies diluted in 1% (w/v) BSA in PBS for 1 hour at room temperature protected from the light: anti-rabbit AlexaFluor 488 (Invitrogen, 1:1000) and anti-mouse AlexaFluor 546 (Invitrogen, 1:1000). […] Mean nuclear fluorescence for at least 50 nuclei was measured using Image) software (National Institutes of Health, USA) and the data analysed using GraphPad Prism software version 6.0."}, "[8]": {"system": "pChk1^Ser345 in MCF7 cells", "test": "4-nitroquinoline induced phosphorylation of Chk1 in MCF7 cells over time, immunofluorescence", "conditions": "Homo sapiens, 2.5 μM 4-nitroquinoline, 10 μM VE-821, for up to 3 hr", "experimental": "(§1) Coverslips were sterilised in methanol and placed in the bottom of a 6-well culture dish. 2×10^5 MCF7 cells were seeded into each well of a 6-well culture dish in culture medium (RPMI-1640 with 10% FBS and 1% penicillin and streptomycin) and allowed to adhere for 24 hours. […] Cells were incubated at 37° C. for 0.5, 1 and 3 hours at which points they were washed with 2 mls PBS and fixed. Cells were fixed using 4% (w/v) paraformaldehyde for 20 minutes at room temperature and permeablised using 0.5% (v/v) Triton-X-100 for 30 minutes at room temperature. […] These were detected using the appropriate secondary antibodies diluted in 1% (w/v) BSA in PBS for 1 hour at room temperature protected from light: anti-rabbit AlexaFluor 546 (Invitrogen, 1:1000) or anti-mouse AlexaFluor 546 (Invitrogen, 1:1000). Coverslips were washed three times for 10 minutes in PBS after incubation with each antibody. DNA was stained using […] with DAPI (Vector Laboratories). Images were captured using a Zeiss LSM 700 confocal microscope (Zeiss) with Zen 2009 software (Zeiss) using and ×40 lens and wavelengths of 405 nm and 561 nm. Mean nuclear fluorescence for at least 50 nuclei was measured using Image) software (National Institutes of Health, USA) and the data analysed using GraphPad Prism software version 6.0."}, "[9]": {"system": "γH2AX in MCF7 cells", "test": "4-nitroquinoline induced phosphorylation of H2AX in MCF7 cells over time, immunofluorescence", "conditions": "Homo sapiens, 2.5 μM 4-nitroquinoline", "experimental": "as §1"}, "[10]": {"system": "pChk1^Ser345 in MCF7 cells", "test": "UV induced phosphorylation of Chk1 in MCF7 cells over time, immunofluorescence", "conditions": "20 J/m^2 UV", "experimental": "(§2) Coverslips were sterilised in methanol and placed in the bottom of a 6-well culture dish. 2×10^5 MCF7 cells were seeded into each well of a 6-well culture dish in culture medium (RPMI-1640 with 10% FBS and 1% penicillin and streptomycin) and allowed to adhere for 24 hours. […] Cells were exposed to 20 J/m^2 UV using a […]-2400' (Stratagene). Cells were incubated at 37° C. for 0.5, 1 and 3 hours at which points they were washed with 2 mls PBS and fixed. Cells were fixed using 4% (w/v) paraformaldehyde for 20 minutes at room temperature and permeablised using 0.5% (v/v) Triton-X-100 for 30 minutes at room temperature. […] These were detected using the appropriate secondary antibodies diluted in 1% (w/v) BSA in PBS for 1 hour at room temperature protected from light: anti-rabbit AlexaFluor 546 (Invitrogen, 1:1000) or anti-mouse AlexaFluor 546 (Invitrogen, 1:1000). Coverslips were washed three times for 10 minutes in PBS after incubation with each antibody. DNA was stained using […] with DAPI (Vector Laboratories). Images were captured using a Zeiss LSM 700 confocal microscope (Zeiss) with Zen 2009 software (Zeiss) using and ×40 lens and wavelengths of 405 nm and 561 nm. Mean nuclear fluorescence for at least 50 nuclei was measured using Image) software (National Institutes of Health, USA) and the data analysed using GraphPad Prism software version 6.0."}, "[11]": {"system": "γH2AX in MCF7 cells", "test": "UV induced phosphorylation of H2AX in MCF7 cells over time, immunofluorescence", "conditions": "20 J/m^2 UV", "experimental": "as §2"}}, "data": [{"smiles": "CNCc1ccc(-c2cc(-c3nc(-c4ccc(S(=O)(=O)C(C)C)cc4)cnc3N)on2)cc1", "note": "[VE-822]", "values": [{"measurement": "IC50", "setting": "[1]", "result": 1, "unit": "µM"}, {"measurement": "inhibition of 4-nitroquinoline-induced increases in γH2AX", "setting": "[2]", "result": "inhibited by VE-822 in a concentration-dependent manner"}]}, {"smiles": "O=[N+]([O-])c1ccnc2ccccc12", "note": "[4-nitroquinoline]", "values": [{"measurement": "phosphorylation of pChk1^Ser345 and γH2AX (biomarker induction)", "setting": "[3]", "result": "improved phosphorylation"}, {"measurement": "concentration adequate to induce ATR-dependent phosphorylation events", "setting": "[4]", "result": "≤ 5", "unit": "µM"}, {"measurement": "concentration required for pChk1^Ser345 and γH2AX induction compared with whole blood", "setting": "[5]", "result": "lower concentrations were required"}]}, {"smiles": "CS(=O)(=O)c1ccc(-c2cnc(N)c(C(=O)Nc3ccccc3)n2)cc1", "note": "[VE-821]", "values": [{"measurement": "level of pChk1^Ser345 signal after co-administering compound", "setting": "[6]", "result": "reduction"}, {"measurement": "level of γH2AX signal after co-administering compound", "setting": "[6]", "result": "reduction"}, {"measurement": "inhibition of UV-induced pChk1^Ser345", "setting": "[7]", "result": "significant inhibition"}, {"measurement": "inhibition of UV-induced γH2AX", "setting": "[7]", "result": "significant inhibition"}, {"measurement": "inhibition at 10 µM", "setting": "[8]", "result": "> 70", "unit": "%"}, {"measurement": "inhibition at 10 µM", "setting": "[9]; 10 μM VE-821, at 1 hr", "result": 70, "unit": "%"}, {"measurement": "inhibition at 10 µM", "setting": "[9]; 10 μM VE-821, at 3 hr", "result": 40, "unit": "%"}, {"measurement": "inhibition (of UV-induced Chk1 phosphorylation)", "setting": "[10]; at 0.5 hr", "result": 70, "unit": "%"}, {"measurement": "inhibition (of UV-induced Chk1 phosphorylation)", "setting": "[10]; at 3 hr", "result": 55, "unit": "%"}, {"measurement": "inhibition of γH2AX", "setting": "[11]; at 0.5 hr", "result": 80, "unit": "%"}, {"measurement": "inhibition of γH2AX", "setting": "[11]; at 3 hr", "result": "< 20", "unit": "%"}]}]}
